Measurements published in publication PMC6010545, “Identification of a Novel Polyamine Scaffold With Potent Efflux Pump Inhibition Activity Toward Multi-Drug Resistant Bacterial Pathogens” (Frontiers in Microbiology, 2018).
Converted amounts (≈) assume the structure as drawn. “Also recorded” adds a separate entry of the source. Read-outs that look alike come from different tables or passages of the source. Residues, ends and D or L forms follow the SMILES beside them. *: point of attachment. βNA = c1ccc2cc(N*)ccc2c1

What was measured:
[1] = system: tetracycline-resistant P. aeruginosa isolate 1419; assay: Checkerboard potentiation assay with tetracycline; type: cell-based, Pseudomonas aeruginosa; settings: for EC50: Pseudomonas aeruginosa, 20 h, inhibitor alone, 25 μg mL^-1 highest concentration tested, read-out: EPI* (inhibitory concentration of efflux pump inhibitor alone); for TPI (inhibitory concentration of polyamine alone): 25 µg ml-1 highest tested
Description: (§1) Scaffold ranking library samples and individual polyamines were screened using checkerboard inhibitory assays to assess the potentiation of tetracycline and chloramphenicol. The test utilized a 96-well plate microtiter assay where the concentration of the scaffold or individual polyamine was decreased from 25 to 0.8 μg mL^-1 (average molarity of mixture samples 65 to 4 μM) along the rows, and the concentration of tetracycline or chloramphenicol was increased from 0.4 to 100 μM across the columns. […] However, with the known antibiotics, we report EC90 values in μM, which more accurately describes purified compounds. Plates were incubated statically at 37°C for 20 h, and the optical density (OD600) was determined using a Synergy 2 plate reader (BioTek). Potentiation modeling (detailed below) was performed to determine fold change in the 50 and 90% effective concentration of tetracycline or chloramphenicol.
(§2) Potentiation was quantified using a mathematical model developed by our group to assess the ability of library samples and individual compounds to effectively enhance the activity of tetracycline or chloramphenicol ([Hoel, 1987]). […] In this way, only libraries and compounds that potentiated tetracycline or chloramphenicol activity were pursued. The model is based on the following equation for modeling the percentage activity of a mixture of two agents with independent action ([Hoel, 1987]):
%Antibiotic & Comp(X1,X2)=%Antibiotic(X1)+%Comp(X2)−%Antibiotic(X1)⋅%Comp(X2)
Here, x1 and x2 are the concentrations of antibiotic (tetracycline or chloramphenicol) and library/compound (Comp) tested, respectively. This equation can be rearranged to model the effective percent activity (EC) of the antibiotic alone, after accounting for compound activity:
Eff%Antibiotic(X1)=%Antibiotic & Compound(X1,X2)−%Compound(X2)/1−%Compound(X2)
Thus, the model-adjusted checkerboards show the antibiotic activity post-potentiation, and from that one can determine the true change in Mic.

[2] = MTT cytotoxicity assay; type: cell-based; settings: human, 25 μg mL^-1, 48 h, read-out: percent recovery (cell viability)
Description: To assess toxicity of polyamine compounds we used HepG2 human liver carcinoma cells and Hek293T human embryonic kidney epithelial cells. The viability of cell lines was determined using a 3-(4,5-dimethylthiazol-2-yl)-2,5-diphenyltetrazolium bromide (MTT) molecular probe as previously described by our group ([Fleeman et al., 2015]). Briefly, 247, 266, 271 (Hek293T), or 250, 271, 314 (HepG2), alongside control efflux pump inhibitor PaβN, were diluted in 10% DMF from 25 μg mL^-1 to 3 μg mL^-1 using twofold dilutions, before being added to cells in DMEM with 10% FBS and 1% penicillin/streptomycin. Cells were then incubated for 48 h at 37°C with 5% CO2. Following this, viability was assessed by the addition of MTT and measuring the OD570 in a Biotek plate reader. Percent recovery was determined compared to no drug controls.

[3] = system: MRSA (USA300); assay: Potentiation of chloramphenicol, MRSA USA300 and norA mutant; type: cell-based, S. aureus
Description: as §1
as §2, with “The model is based on the following equation for modeling the percentage activity of a mixture of two agents with independent action ([Hoel, 1987]):” left out

[4] = system: P. aeruginosa proficient (1419) and deficient (1418) strain; assay: Aztreonam combination testing in efflux proficient and deficient strains; type: cell-based; settings: strain 1419 (efflux proficient); polyamine 12.5 μg mL^-1, ½ X MIC aztreonam
Description: FIGURE 6 Confirming efflux pump inhibition by polyamines using efflux deficient strains. (A) A P. aeruginosa proficient (1419) and deficient (1418) strain were subjected to combination testing of the polyamines at 12.5 μg mL^-1 and ½ X MIC of aztreonam. Fold potentiation was calculated by dividing the CFU mL^-1 for aztreonam only by the CFU mL^-1 of the combined treatment groups. (B) Lead polyamine 247 was assessed for its ability to potentiate the activity of chloramphenicol toward S. aureus strain United States 300 and its norA mutant. Shown is the potentiated chloramphenicol EC90 calculated as described in A. Error bars are shown ± SEM.

[5] = system: A. baumannii 1643; assay: Minimum inhibitory concentrations of antibiotics, A. baumannii isolate; type: cell-based; settings: Acinetobacter baumannii; strain 1643; read-out: minimal inhibitory concentration
Description: (§3) The bacterial strains used in this study are multi-drug resistant clinical isolates that have previously been described (Supplementary Table S1; [Fleeman et al., 2015]). Organisms were grown in tryptic soy broth (TSB) for overnight cultures and cation adjusted Mueller Hinton broth (CA-MH II) was used for experimental procedures. All incubations were performed at 37°C. The minimum inhibitory concentrations (MICS) for all antibiotics tested against these organisms are shown in Supplementary Table S1.

[6] = system: S. aureus; assay: microbe, parasite or virus in culture; type: cell-based; settings: Staphylococcus aureus
Description: as §3

[7] = system: P. aeruginosa; assay: Minimum inhibitory concentrations of antibiotics, P. aeruginosa isolates; type: cell-based; settings: Pseudomonas aeruginosa, read-out: minimal inhibitory concentration
Description: as §3

[8] = system: P. aeruginosa (1419); assay: Bacterial membrane depolarization (DiSC3 dye); type: cell-based; settings: 25 μg mL^-1
Description: To determine the level of membrane depolarization by polyamine compounds a 3,3′-dipropylthiadicarbocyanine Iodide (DiSC3) fluorescence dye was used. Exponentially growing cultures were prepared as described above, before being harvested by centrifugation. Cells were next washed in buffer a [5 mM Hepes (pH 7.2), 5 mM glucose] and resuspended to an OD600 of 0.2 in the same buffer containing 100 mM KCL and 2 μM DiSC3. Samples were allowed to equilibrate for 15 min at room temperature to ensure uptake and quenching of the dye in bacterial membranes. Cells were aliquoted into 96-well plates and polyamines were added alongside the known efflux inhibitor PAβN (all at 25 μg mL^-1). Nisin (25 μg mL^-1) was used as a positive control to display depolarization effects. A Biotek plate reader was used to monitor fluorescence of wells, with a 622 nm excitation and 670 nm emission. For graphical representation, the maximum relative fluorescence at 2 min was used for comparison of lead agents to controls.

[9] = EC50 tetracycline without EPI / with EPI
[10] = EC90 tetracycline without EPI / with EPI
[11] = Hek293T human embryonic kidney epithelial cells, vs solvent only controls
[12] = 25 µg ml-1 TPI, EC50 tetracycline no TPI / with TPI
[13] = 25 µg ml-1 TPI, EC90 tetracycline no TPI / with TPI
[14] = HepG2 human liver carcinoma cells

Row | Compound | FP* (fold potentiation of tetracycline EC50) [1, 9] | FP# (fold potentiation of tetracycline EC90) [1, 10] | EC50 [1] | recovery at 48 h, 25 μg mL^-1 [2, 11] | FP* (fold potentiation of tetracycline EC50) [1, 12] | FP# (fold potentiation of tetracycline EC90) [1, 13] | TPI (inhibitory concentration of polyamine alone) [1] | recovery at 48 h, 25 μg mL^-1 [2, 14] | MIC ([7]; strain 1418) | MIC ([7]; strain 1419) | other results
1 | COC(=O)[C@H]1[C@H]2C[C@@H]3c4[nH]c5cc(OC)ccc5c4CCN3C[C@H]2C[C@@H](OC(=O)c2cc(OC)c(OC)c(OC)c2)[C@@H]1OC [Reserpine, reserpine, reference compound] | 11.2 fold | 1 fold | > 25 mg/L | – | – | – | – | – | – | – | –
2 | CNCCCC[C@@H](CN)NC[C@H](Cc1ccccc1)NCCc1ccccc1 [compound 247] | – | – | > 25 mg/L | 84% | 5 fold | 7.5 fold | > 25 µg/mL | – | – | – | potentiation of chloramphenicol ([3]; norA knockout): little potentiation; potentiation of chloramphenicol ([3]; wild-type USA300): marked potentiation of antibiotic activity in a dose responsive manner; also recorded: strongly potentiate chloramphenicol activity
3 | NCC[C@@H](CN)NC[C@H](Cc1ccccc1)NCCc1ccccc1 [compound 250] | 7.0 fold | 7.8 fold | > 25 mg/L | – | 7 fold | 7.8 fold | > 25 µg/mL | 80% | – | – | potentiation of aztreonam [4]: best potentiators of aztreonam
4 | O=C(N[C@H](CO)[C@H](O)c1ccc([N+](=O)[O-])cc1)C(Cl)Cl [chloramphenicol] | – | – | – | – | – | – | – | – | > 619 µM | 150 µM (≈ 48.5 µg/mL) | MIC [5]: 85 µM (≈ 27.5 µg/mL); MIC ([6]; USA100, strain 635 (USA100), read-out: minimal inhibitory concentration): 110 µM (≈ 35.5 µg/mL); MIC ([6]; USA300, read-out: minimal inhibitory concentration, strain JE-2 norA knockout (USA300)): 100 µM (≈ 32.3 µg/mL); MIC ([6]; USA300, strain JE-2 parental (USA300), read-out: minimal inhibitory concentration): 110 µM (≈ 35.5 µg/mL); membrane depolarization (DiSC3 fluorescence change) [8]: decreased in florescence
5 | C[C@H]1[C@H](NC(=O)/C(=N\OC(C)(C)C(=O)O)c2csc(N)n2)C(=O)N1S(=O)(=O)O [aztreonam] | – | – | – | – | – | – | – | – | 6 µM (≈ 2.61 µg/mL) | 1 µM (≈ 0.435 µg/mL) | –
6 | N=C(N)NCCC[C@H](NC(=O)[C@@H](N)Cc1ccccc1)C(=O)Nc1ccc2ccccc2c1 [PAβN, phenylalanine arginine beta naphthalimide, reference compound] (H-Phe-Arg-βNA) | – | – | – | 63% | – | – | – | 68% | – | – | –
